Holding throughout (format): functional, organism-based
Assay [1] relates to Human immunodeficiency virus 1. The assay can be described thus: Antiviral activity against HIV-1 strain IIIB infected in human MT4 cells assessed as protection against virus-induced cytopathicity after 5 days by MTT assay. The note with it: Human immunodeficiency virus 1, IIIB, MT4, 120 h. In general terms: Cytopathic effects are the visible damage that an infection or toxin causes in cultured cells.

Assay [2] relates to Human immunodeficiency virus 1. The assay can be described thus: Antiviral activity against HIV-1 harboring RT Y181C mutant infected in human MT4 cells assessed as protection against virus-induced cytopathogenicity after 5 days by MTT assay. The note with it: Human immunodeficiency virus 1, MT4, 120 h.
In assay [3] the test system is Human immunodeficiency virus 1. The assay is described as follows: Antiviral activity against HIV-1 harboring RT K103N mutant infected in human MT4 cells assessed as protection against virus-induced cytopathogenicity after 5 days by MTT assay. As to conditions: Human immunodeficiency virus 1, MT4, 120 h.
Assay [4] has as its system Human immunodeficiency virus 1. The assay can be described thus: Antiviral activity against NNRTI-resistant HIV-1 RES056 harboring RT K103N/Y181C mutant infected in human MT4 cells assessed as protection against virus-induced cytopathogenicity after 5 days by MTT assay. As to conditions: Human immunodeficiency virus 1, RES056, MT4, 120 h.
The test system of assay [5] is Human immunodeficiency virus 1. The assay can be described thus: Antiviral activity against HIV-1 harboring RT L100I mutant infected in human MT4 cells assessed as protection against virus-induced cytopathogenicity after 5 days by MTT assay. As to conditions: Human immunodeficiency virus 1, MT4, 120 h.
Assay [6] has as its system Human immunodeficiency virus 1. The assay is described as follows: Antiviral activity against HIV-1 harboring RT Y188L mutant infected in human MT4 cells assessed as protection against virus-induced cytopathogenicity after 5 days by MTT assay. As to conditions: Human immunodeficiency virus 1, MT4, 120 h.
Assay [7] relates to Human immunodeficiency virus 1. The assay is described as follows: Antiviral activity against HIV-1 harboring RT E138K mutant infected in human MT4 cells assessed as protection against virus-induced cytopathogenicity after 5 days by MTT assay. As to conditions: Human immunodeficiency virus 1, MT4, 120 h.
In assay [8] the test system is Human immunodeficiency virus 1. The assay is described as follows: Antiviral activity against HIV-1 harboring RT F227L/V106A mutant infected in human MT4 cells assessed as protection against virus-induced cytopathogenicity after 5 days by MTT assay. As to conditions: Human immunodeficiency virus 1, MT4, 120 h.

pEC50: −log10 of the molar value.

As a reminder, the pEC50 is the negative decadic logarithm of the EC50, by convention in mol/L.

As to `Cc1cc(C#N)cc(C)c1Oc1nc(NC2CCN(Cc3ccc(S(C)(=O)=O)cc3)CC2)ncc1-c1ccoc1`, the pEC50 in assay [1] is 8.32; in assay [2], 7.84; in assay [3], 8.36; in assay [4] it was 6.76; in assay [5], 7.83; in assay [6], 7.62. For the same compound, the results for the pEC50 in assay [7] and in assay [8] were 7.82 and 7.38, respectively.
For `Cc1cc(/C=C/C#N)cc(C)c1Oc1nc(NC2CCN(Cc3ccc(S(N)(=O)=O)cc3)CC2)ncc1-c1cccnc1`, the pEC50 in assay [1] was 8.30; in assay [2], 8.00; in assay [3] it was 8.20; in assay [4] it was 7.59; in assay [5], 8.11; in assay [6], 7.60. Besides, the negative-log EC50 (pEC50) in assay [7] is 7.92; in assay [8] it was 7.91.
Turning to `COc1cc(-c2cnc(NC3CCN(Cc4ccc(S(C)(=O)=O)cc4)CC3)nc2Oc2c(C)cc(/C=C/C#N)cc2C)ccn1`, the pEC50 in assay [1] is 8.40; in assay [4] it was 7.52.
In the same order, the values of `Cc1cc(/C=C/C#N)cc(C)c1Oc1nc(NC2CCN(Cc3ccc(S(N)(=O)=O)cc3)CC2)ncc1-c1ccnc(Cl)c1` are 8.37 and 7.68.
Regarding `Cc1cc(C#N)cc(C)c1Oc1nc(NC2CCN(Cc3ccc(C(N)=O)cc3)CC2)ncc1-c1ccccc1`, the pEC50 in assay [1] is 8.29; in assay [2], 7.54; in assay [3] it was 8.04; in assay [4], 6.25; in assay [5], 6.82; in assay [6] it was 7.52. The pEC50 was 7.77 in assay [7] and 6.41 in assay [8].
On to `Cc1cc(C#N)cc(C)c1Oc1nc(NC2CCN(Cc3ccc(C(N)=O)cc3)CC2)ncc1-c1ccco1`, for which the pEC50 in assay [1] was 8.24; in assay [2] it was 7.83; in assay [3], 8.43; in assay [4], 6.60; in assay [5], 7.42; in assay [6], 7.63. Moreover, the pEC50 in assay [7] was 7.92; in assay [8], 6.79.
For the compound `Cc1cc(-c2cnc(NC3CCN(Cc4ccc(C(N)=O)cc4)CC3)nc2Oc2c(C)cc(/C=C/C#N)cc2C)ccn1`, the pEC50 was 8.45 in assay [1] and 7.74 in assay [4].
Regarding `Cc1cc(C#N)cc(C)c1Oc1nc(NC2CCN(Cc3ccc(S(N)(=O)=O)cc3)CC2)ncc1-c1ccco1`, the pEC50 was 8.36 in assay [1]; 7.61 in assay [2]; 8.27 in assay [3]; 6.66 in assay [4]; 7.68 in assay [5]; 7.44 in assay [6]. In addition, the pEC50 was 7.61 in assay [7] and 6.89 in assay [8].
For `Cc1cc(/C=C/C#N)cc(C)c1Oc1nc(NC2CCN(Cc3ccc(C(N)=O)cc3)CC2)ncc1-c1cccnc1`, the pEC50 in assay [1] was 8.32; in assay [2] it was 8.00; in assay [3], 8.24; in assay [4], 7.64; in assay [5], 7.97; in assay [6], 7.59. Besides, the values for the pEC50 in assay [7] and in assay [8] were 7.95 and 7.66, respectively.
As for `Cc1cc(/C=C/C#N)cc(C)c1Oc1nc(NC2CCN(Cc3ccc(C(N)=O)cc3)CC2)ncc1-c1ccc(N)nc1`, the pEC50 in assay [1] was 8.18; in assay [2], 7.92; in assay [3] it was 8.18; in assay [4], 7.52; in assay [5], 7.95; in assay [6] it was 7.27. In addition, the pEC50 in assay [7] and in assay [8] was 7.81 throughout.
With `Cc1cc(/C=C/C#N)cc(C)c1Oc1nc(NC2CCN(Cc3ccc(C(N)=O)cc3)CC2)ncc1-c1ccnc(F)c1`, the pEC50 in assay [1] is 8.08; in assay [4], 7.27.
For `Cc1cc(C#N)cc(C)c1Oc1nc(NC2CCN(Cc3ccc(S(N)(=O)=O)cc3)CC2)ncc1-c1ccncc1`, the pEC50 is 8.59 in assay [1]; 8.16 in assay [2]; 8.63 in assay [3]; 6.95 in assay [4]; 7.97 in assay [5]; 7.67 in assay [6]. The pEC50 in assay [7] is 8.09; in assay [8], 7.34.
Consider `Cc1cc(/C=C/C#N)cc(C)c1Oc1nc(NC2CCN(Cc3ccc(S(N)(=O)=O)cc3)CC2)ncc1-c1ccnc(F)c1`, for which the results for the negative-log EC50 (pEC50) in assay [1] and in assay [4] were 8.20 and 7.41, respectively.
As to `Cc1cc(/C=C/C#N)cc(C)c1Oc1nc(NC2CCN(Cc3ccc(C(N)=O)cc3)CC2)ncc1-c1ccnc(Br)c1`, the figures for the pEC50 in assay [1] and in assay [4] were 8.15 and 7.49, respectively.
In the same order, the values of `Cc1cc(-c2cnc(NC3CCN(Cc4ccc(S(N)(=O)=O)cc4)CC3)nc2Oc2c(C)cc(/C=C/C#N)cc2C)ccn1` are 8.38 and 7.64.
In the case of `Cc1cc(-c2cnc(NC3CCN(Cc4ccc(S(C)(=O)=O)cc4)CC3)nc2Oc2c(C)cc(/C=C/C#N)cc2C)ccn1`, the figures for the negative logarithm of the EC50 (pEC50) in assay [1] and in assay [4] were 8.34 and 7.50, respectively.
As for `Cc1cc(/C=C/C#N)cc(C)c1Oc1nc(NC2CCN(Cc3ccc(S(C)(=O)=O)cc3)CC2)ncc1-c1ccc(F)nc1`, the values for the pEC50 in assay [1] and in assay [4] were 8.22 and 7.59, respectively.
In the same order, the values of `Cc1cc(/C=C/C#N)cc(C)c1Oc1nc(NC2CCN(Cc3ccc(S(C)(=O)=O)cc3)CC2)ncc1-c1ccc(N)nc1` are 8.28 and 7.58.
For the compound `Cc1cc(C#N)cc(C)c1Oc1nc(Nc2ccc(C#N)cc2)nc(N)c1Br` [ETRAVIRINE], the pEC50 was 7.87 in assay [2], 7.86 in assay [6] and 8.14 in assay [7].
For the compound `Cc1cc(/C=C/C#N)cc(C)c1Oc1nc(NC2CCN(Cc3ccc(S(C)(=O)=O)cc3)CC2)ncc1-c1ccncc1`, the pEC50 was 8.24 in assay [1] and 7.58 in assay [4].
Taken in the same sequence, the figures for `Cc1cc(/C=C/C#N)cc(C)c1Oc1nc(NC2CCN(Cc3ccc(S(C)(=O)=O)cc3)CC2)ncc1-c1ccnc(F)c1` were 8.32 and 7.60.
With `COc1cc(-c2cnc(NC3CCN(Cc4ccc(S(N)(=O)=O)cc4)CC3)nc2Oc2c(C)cc(/C=C/C#N)cc2C)ccn1`, the pEC50 in assay [1] was 8.24; in assay [4], 7.46.
For the compound `Cc1cc(/C=C/C#N)cc(C)c1Oc1nc(NC2CCN(Cc3ccc(S(N)(=O)=O)cc3)CC2)ncc1-c1ccc(N)nc1`, the results for the pEC50 in assay [1] and in assay [4] were 8.24 and 7.47, respectively.
In the same order, the values of `Cc1cc(/C=C/C#N)cc(C)c1Oc1nc(NC2CCN(Cc3ccc(C(N)=O)cc3)CC2)ncc1-c1ccnc(Cl)c1` are 8.38 and 7.09.
In the case of `Cc1cc(/C=C/C#N)cc(C)c1Oc1nc(NC2CCN(Cc3ccc(S(N)(=O)=O)cc3)CC2)ncc1-c1ccnc(Br)c1`, the pEC50 in assay [1] was 8.35; in assay [4], 7.57.
Regarding `Cc1cc(/C=C/C#N)cc(C)c1Oc1nc(NC2CCN(Cc3ccc(S(C)(=O)=O)cc3)CC2)ncc1-c1ccnc(Cl)c1`, the pEC50 in assay [1] is 8.37; in assay [4], 7.48.
Taken in the same sequence, the figures for `COc1cc(-c2cnc(NC3CCN(Cc4ccc(C(N)=O)cc4)CC3)nc2Oc2c(C)cc(/C=C/C#N)cc2C)ccn1` were 8.14 and 7.39.
Taken in the same sequence, the figures for `Cc1cc(/C=C/C#N)cc(C)c1Oc1nc(NC2CCN(Cc3ccc(S(C)(=O)=O)cc3)CC2)ncc1-c1ccnc(Br)c1` were 8.34 and 7.48.

Values taken from ChEMBL document CHEMBL4834412, “2,4,5-Trisubstituted Pyrimidines as Potent HIV-1 NNRTIs: Rational Design, Synthesis, Activity Evaluation, and Crystallographic Studies” (J Med Chem, 2021).
